# Source: PubChem BioAssay (NCI)
#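 Method: 48-hour compound exposure of cells in 96-well plates, five concentrations, linear interpolation of endpoints. TGI is the concentration that stops growth completely.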
# Columns and labels:
# Assay in all cases: DTP human tumour cell line panel, 48 h
# [1] = test system: SNB-75 CNS
# [2] = test system: HCT-116 colon
# [3] = test system: HCC-2998 colon
# [4] = test system: HOP-62 NSCLC
# [5] = test system: U251 CNS
# [6] = test system: 786-0 renal
# [7] = test system: NCI-H460 lung
# [8] = test system: CCRF-CEM leukemia
# [9] = test system: SK-MEL-28 melanoma
# [10] = test system: IGROV1 ovarian
# [11] = test system: A498 renal
# [12] = test system: SF-268 CNS
# [13] = test system: EKVX NSCLC
# [14] = test system: MDA-N
# [15] = test system: K-562 leukemia
# [16] = test system: SF-539 CNS
# [17] = test system: RPMI-8226 leukemia
# [18] = test system: RXF 393 renal
# [19] = test system: LOX IMVI melanoma
# [20] = test system: HL-60(TB) leukemia
# [21] = test system: MOLT-4 leukemia
# [22] = test system: HS 578T breast
# [23] = test system: M14 melanoma
# [24] = test system: SK-OV-3 ovarian
# [25] = test system: HOP-92 NSCLC
# [26] = test system: PC-3 prostate
# [27] = test system: NCI-H522 lung
# [28] = test system: HT29 colon
# [29] = test system: OVCAR-3 ovarian
# [30] = test system: NCI-H226 lung
# [31] = test system: SK-MEL-5 melanoma
# [32] = test system: CAKI-1 renal
# [33] = test system: SF-295 CNS
# [34] = test system: OVCAR-8 ovarian
# [35] = test system: MDA-MB-435
# [36] = test system: UO-31 renal
# [37] = test system: SR leukemia
# [38] = test system: SK-MEL-2 melanoma
# [39] = test system: TK-10 renal
# [40] = test system: SW-620 colon
# [41] = test system: DU-145 prostate
# [42] = test system: ACHN renal
# [43] = test system: KM12 colon
# [44] = test system: OVCAR-4 ovarian
# [45] = test system: NCI/ADR-RES ovarian
# [46] = test system: HCT-15 colon
# [47] = test system: NCI-H23 lung
# [48] = test system: OVCAR-5 ovarian
# [49] = test system: MCF7 breast
# [50] = test system: T-47D breast
# [51] = test system: MDA-MB-231 breast
# [52] = test system: UACC-257 melanoma
# [53] = test system: UACC-62 melanoma
# [54] = test system: COLO 205 colon
# [55] = test system: SNB-19 CNS
# [56] = test system: SN12C renal
# [57] = test system: A549 NSCLC
# [58] = test system: MALME-3M melanoma
structure (smiles),measurement,setting,value
Oc1ccc(-c2nc3cc(C(F)(F)F)ccc3n2CC2CCCN3CCCCC23)cc1 (stereo not drawn),TGI,[1],32.4 µM
same,TGI,[2],29.3 µM
same,TGI,[3],21.5 µM
same,TGI,[4],26 µM
same,TGI,[5],28 µM
same,TGI,[6],30.7 µM
same,TGI,[7],28.3 µM
same,TGI,[8],31.8 µM
same,TGI,[9],29.6 µM
same,TGI,[10],26 µM
same,TGI,[11],29.3 µM
same,TGI,[12],28.1 µM
same,TGI,[13],31 µM
same,TGI,[14],29.7 µM
same,TGI,[15],30.3 µM
same,TGI,[16],34.6 µM
same,TGI,[17],31.5 µM
same,TGI,[18],34.5 µM
same,TGI,[19],28.8 µM
same,TGI,[20],12.3 µM
same,TGI,[21],33.5 µM
same,TGI,[22],31.5 µM
same,TGI,[23],32.3 µM
same,TGI,[24],27.6 µM
same,TGI,[25],28.5 µM
same,TGI,[26],27.1 µM
same,TGI,[27],29 µM
same,TGI,[28],34.7 µM
same,TGI,[29],27 µM
same,TGI,[30],32.2 µM
same,TGI,[31],27.7 µM
same,TGI,[32],38.8 µM
same,TGI,[33],28.4 µM
same,TGI,[34],29.5 µM
same,TGI,[35],26.3 µM
same,TGI,[36],25.1 µM
same,TGI,[37],35.8 µM
same,TGI,[38],27.9 µM
same,TGI,[39],30.5 µM
same,TGI,[40],28.4 µM
same,TGI,[41],36.1 µM
same,TGI,[42],28.3 µM
same,TGI,[43],29.3 µM
same,TGI,[44],31.2 µM
same,TGI,[45],32.9 µM
same,TGI,[46],30.1 µM
same,TGI,[47],30.4 µM
same,TGI,[48],67 µM
same,TGI,[49],25.2 µM
same,TGI,[50],47.6 µM
same,TGI,[51],27.6 µM
same,TGI,[52],30.3 µM
COC(=O)NCCc1[nH]nc2c1C(=O)C=C(OC)C2=O,TGI,[1],40.2 µM
same,TGI,[2],32.6 µM
same,TGI,[3],> 100 µM
same,TGI,[4],36 µM
same,TGI,[5],32 µM
same,TGI,[6],36.2 µM
same,TGI,[7],> 100 µM
same,TGI,[8],45.8 µM
same,TGI,[9],35.3 µM
same,TGI,[53],48.7 µM
same,TGI,[10],34.9 µM
same,TGI,[12],36 µM
same,TGI,[13],44.5 µM
same,TGI,[14],33.3 µM
same,TGI,[15],37.3 µM
same,TGI,[16],33.5 µM
same,TGI,[17],53.9 µM
same,TGI,[18],31.4 µM
same,TGI,[54],52.8 µM
same,TGI,[19],33.7 µM
same,TGI,[20],44 µM
same,TGI,[21],46.4 µM
same,TGI,[22],88.1 µM
same,TGI,[23],33.9 µM
same,TGI,[24],> 100 µM
same,TGI,[25],37.7 µM
same,TGI,[55],45.6 µM
same,TGI,[26],95.8 µM
same,TGI,[27],44.3 µM
same,TGI,[56],38.8 µM
same,TGI,[28],> 100 µM
same,TGI,[29],32 µM
same,TGI,[30],50.5 µM
same,TGI,[31],28.9 µM
same,TGI,[32],45.5 µM
same,TGI,[33],32.2 µM
same,TGI,[34],42.8 µM
same,TGI,[35],27.7 µM
same,TGI,[36],50.1 µM
same,TGI,[37],36.6 µM
same,TGI,[57],> 100 µM
same,TGI,[38],> 100 µM
same,TGI,[39],> 100 µM
same,TGI,[40],43.9 µM
same,TGI,[41],> 100 µM
same,TGI,[42],37 µM
same,TGI,[43],41.3 µM
same,TGI,[44],35.5 µM
same,TGI,[45],> 100 µM
same,TGI,[58],28.8 µM
same,TGI,[46],71.6 µM
same,TGI,[47],44.4 µM
same,TGI,[48],37.8 µM
same,TGI,[49],48.1 µM
same,TGI,[51],30.4 µM
same,TGI,[52],28.3 µM
